Several values for one entry are separate records, joined by “and”; a condition that tells them apart may be missing. Equal values may be shown once.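 1) Cells in 96-well plates. 2) Compound, 48 h, 5 concentrations. 3) Linear interpolation between surrounding doses. 4) Unreached endpoint = highest concentration. Here, GI50 denotes the concentration required for 50% inhibition of growth. Definition used: TGI = concentration required for complete inhibition of growth.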
Experiments:
Experiment in all cases: NCI anticancer screen, dose series, 48 h
ACHN renal = tested on: ACHN renal
CCRF-CEM leukemia = tested on: CCRF-CEM leukemia
COLO 205 colon = tested on: COLO 205 colon
IGROV1 ovarian = tested on: IGROV1 ovarian
NCI-H226 lung = tested on: NCI-H226 lung
NCI-H522 lung = tested on: NCI-H522 lung
SF-295 CNS = tested on: SF-295 CNS
SK-MEL-28 melanoma = tested on: SK-MEL-28 melanoma
NCI/ADR-RES ovarian = tested on: NCI/ADR-RES ovarian
T-47D breast = tested on: T-47D breast

SMILES | TGI (ACHN renal) [µM] | TGI (CCRF-CEM leukemia) [µM] | TGI (COLO 205 colon) | TGI (IGROV1 ovarian) [µM] | TGI (NCI-H226 lung) [µM] | TGI (NCI-H522 lung) | TGI (SF-295 CNS) | TGI (SK-MEL-28 melanoma) | TGI (NCI/ADR-RES ovarian) | GI50 (CCRF-CEM leukemia) [µM] | GI50 (IGROV1 ovarian) [µM] | GI50 (NCI-H522 lung) [µM] | GI50 (NCI/ADR-RES ovarian) | GI50 (SF-295 CNS) [µM] | GI50 (SK-MEL-28 melanoma) [µM] | TGI (T-47D breast) | GI50 (ACHN renal) [µM] | GI50 (COLO 205 colon) [µM] | GI50 (NCI-H226 lung) [µM] | GI50 (T-47D breast) [µM]
CN1CCCc2nc3ccccc3n2C1 | > 100 | > 100 | > 100 µM | > 100 | > 100 | > 100 µM | > 100 µM | > 100 µM |  |  |  |  |  |  |  |  |  |  |  | 
O=C(Nc1nc(=S)[nH][nH]1)C(=O)C(c1cnc2ccc([N+](=O)[O-])cc2n1)[N+](=O)[O-] (stereo not given) | > 100 | > 100 | > 100 µM | > 100 | > 100 | > 100 µM | > 100 µM | > 100 µM |  |  |  |  |  |  |  |  |  |  |  | 
CC(=O)C1(C(=O)C(=[N+]=[N-])S(=O)(=O)c2ccccc2)CC1 | > 100 | > 100 | > 100 µM | > 100 | > 100 | > 100 µM | > 100 µM | > 100 µM | > 100 µM |  |  |  |  |  |  |  |  |  |  | 
COc1ccc([C@@]23Oc4cc(OC)cc(OC)c4[C@]2(O)[C@H](O)[C@H](C(=O)N(C)C)[C@H]3c2ccccc2)cc1 |  |  | 0.0197 µM |  |  |  | 0.0433 µM and 0.0867 µM | 0.0616 µM and 0.0292 µM and 0.0492 µM | 0.442 µM and 0.329 µM and 1.55 µM | 0.0185 | 0.0248 | 0.0179 | 0.0077 µM and 0.0566 µM | 0.0124 | 0.0134 | 0.044 µM and 0.0052 µM |  |  |  | 
N#Cc1ccccc1Sc1ccccc1N | > 100 | > 100 | > 100 µM | > 100 | 71.6 |  | > 100 µM | > 100 µM |  |  |  |  |  |  |  |  |  |  |  | 
Cc1cc(OC2OC(CO)C(O)C(O)C2O)ccc1O (stereo not given) | > 100 | > 100 | > 100 µM | > 100 |  | > 100 µM | > 100 µM | > 100 µM | > 100 µM |  |  |  |  |  |  | > 100 µM |  |  |  | 
CCc1c(OC(C)=O)c2c(NC3OC(COC(C)=O)C(OC(C)=O)C(OC(C)=O)C3OC(C)=O)nc(SC)nc2oc1=O (stereo not given) | > 100 | > 100 | > 100 µM | > 100 | > 100 |  | > 100 µM |  |  |  |  |  |  |  |  |  |  |  |  | 
Cc1ccc(S(=O)(=O)Nc2ccccc2C(C)(C)C)cc1 | > 100 | 63.8 |  | > 100 | 56.3 |  | 32 µM | 43.2 µM |  |  |  |  |  |  |  |  |  |  |  | 
CCC(Oc1ccc(OC)c2c1C(=O)CCC2)C(=O)O (stereo not given) | > 100 | > 100 | > 100 µM | > 100 | > 100 | > 100 µM | > 100 µM | > 100 µM |  |  |  |  |  |  |  |  |  |  |  | 
O=C([O-])c1ccc([I+]c2ccccc2)cc1 |  | > 100 | > 100 µM | > 100 | > 100 | > 100 µM | > 100 µM |  |  |  |  |  |  |  |  |  |  |  |  | 
COc1cccc(-c2cc(=O)c3cc(N4CCN(C)CC4)ccc3[nH]2)c1 | > 100 | 5.89 | 3.55 µM and 10.7 µM | > 100 |  | 4.28 µM and 3.79 µM |  | > 100 µM |  | 0.598 | 2.86 | 1.02 | 3.68 µM | 8.34 | 3.99 |  | 3.74 | 2.02 | 2.83 | 
CCCCCCCCCCCCCCCC(=O)OCC1OC(n2cc(F)c(=O)[nH]c2=O)C(NC(=O)OCc2ccccc2)C(O)C1O (stereo not given) | > 100 | 30 | 34 µM | 46.6 |  |  | 32.5 µM |  |  |  |  |  |  |  |  |  |  |  |  | 
CS(=O)(=O)OCCN1CCN(C(=O)c2ccc(Cl)c3c(Nc4ccc(S(=O)(=O)N=C(N)N)cc4)c4ccccc4nc23)CC1 | > 100 | > 100 | > 100 µM | > 100 | > 100 |  | > 100 µM | > 100 µM |  |  |  |  |  |  |  |  |  |  |  | 
O=C1C=CC2(CCC23C=CC(=O)O3)O1 (stereo not given) | > 100 | > 100 | > 100 µM | > 100 | > 100 | > 100 µM | > 100 µM | > 100 µM |  |  |  |  |  |  |  |  |  |  |  | 
C#Cc1cccc(NC(=O)/C=C\C(=O)O)c1 | > 100 | > 100 | > 100 µM |  | > 100 | > 100 µM | > 100 µM | > 100 µM |  |  |  |  |  |  |  |  |  |  |  | 
CC(C)c1ccc(Cc2ccc(C(C)C)c(NC(=O)C(=O)Cc3cnc4ccccc4n3)c2C(C)C)c(C(C)C)c1NC(=O)C(=O)Cc1cnc2ccccc2n1 | > 100 | > 100 | > 100 µM | > 100 |  |  | > 100 µM |  |  |  |  |  |  |  |  |  |  |  |  | 
NC(=O)c1nc(-c2c(F)cccc2Cl)oc1Nc1ccc(C(=O)N2CCOCC2)cc1 | > 100 | > 100 | 5.89 µM |  | > 100 | 57.1 µM | > 100 µM | > 100 µM | > 100 µM | 0.4 |  | 2.11 | 6.23 µM | 1.61 | 13.9 | 62.7 µM | 2.41 | 1.64 | 0.266 | 3.46
C=C1C(=O)O[C@@H]2C[C@@]3(C)[C@H](O)CCC(=C)[C@@H]3C[C@H]12 | 27.8 | 14.1 | 7.09 µM | 45.2 | 25.7 | 17.6 µM | 27.2 µM | 20.2 µM |  |  |  |  |  |  |  |  |  |  |  | 
CCOC(=O)C1=C(C)N(NC(N)=O)C2(N)N(NC(N)=O)C(C)=C(C(=O)OCC)C12C#N (stereo not given) | > 100 |  |  | > 100 | > 100 | > 100 µM | > 100 µM | > 100 µM |  |  |  |  |  |  |  |  |  |  |  | 
CCOC(=O)C[C@@]12CCCN[C@]1(C)CCc1ccccc12 | > 100 | > 100 |  | > 100 |  | > 100 µM | > 100 µM | > 100 µM |  |  |  |  |  |  |  |  |  |  |  | 
CCCC(O)[C@@]1(CC)CC(C)C(O)(C2(C)C[C@H](C)[C@@H](C(CC)C(=O)C(C)[C@@H](O)[C@H](C)C3OC(O)(C(CC)C(=O)O)[C@@H](C)C(O)C3CC)O2)O1 (stereo not given in full) | 6.78 | 7.36 | 0.83 µM | 9.81 | 2.99 | 0.537 µM | 4.91 µM | 1.69 µM | 1.82 µM |  |  |  |  |  |  |  |  |  |  | 
CC(C)(C)C1=NO[C@H]2[C@@H](NC(=O)c3ccccc3)CC[C@@H]12 | > 100 | > 100 | > 100 µM | > 100 | > 100 | > 100 µM | > 100 µM | > 100 µM |  |  |  |  |  |  |  |  |  |  |  | 
N#CC(C(=O)Nc1ccccc1)C1=C(Cl)C(=O)c2ccccc2C1=O (stereo not given) |  | > 100 | 37.3 µM | 34.8 | 30.8 | 29.3 µM | 36.5 µM | 32.1 µM |  |  |  |  |  |  |  |  |  |  |  | 
COc1cc2c(c3c1c(=O)c1ccccc1n3C)C=C([N+](=O)[O-])C(C)(C)O2 | 0.464 | > 100 |  | > 100 | > 100 | > 34.4 µM | > 100 µM |  | > 100 µM |  |  |  |  |  |  | > 100 µM |  |  |  | 
